Measurements: patent US20070021434A1, “NON-NUCLEOSIDE ANTI-HEPACIVIRUS AGENTS AND USES THEREOF” (Migenix Inc., priority 2005, published 2007)
pEC50, pIC50: −log10 of the molar value. Read-outs that look alike come from different tables or passages of the source.

Legend:
[1] = tested on: Huh-7 cells, sub-genomic genotype 1a HCV replicon H/SG-Neo; experiment: Inhibition of HCV replication in cell culture, genotype 1a replicon; type: cell-based, hepatitis C virus; settings: for pEC50: Huh-7, genotype 1a replicon, intracellular HCV RNA 24 h after 3 daily doses; for Selectivity Index (CC50/EC50): genotype 1a replicon, CC50 by neutral red uptake
Experimental: (§1) Test compounds were solubilized at 30 mM in 100% tissue culture grade DMSO (Sigma, Inc.). Aliquots of test compounds sufficient for one daily treatment were made in individual tubes and all material was stored at −20° C. On each day of treatment, daily aliquots of the test compounds were suspended in culture medium at room temperature and immediately added to the cell cultures. Compounds were added to dividing cultures once daily for three days at concentrations ranging from about 30 μM to about 0.0003 μM. Media was changed with each addition of compound. The assays were started when cell cultures were at about 30-50% confluence, and the cells reached confluence during the last day of treatment. The assays included untreated control cultures (six total), and triplicate cultures treated with α-interferon and ribavirin as positive antiviral and toxicity controls.
(§2) Intracellular HCV RNA levels and cytotoxicity were assessed in triplicate 24 hours after the last compound dose.

[2] = tested on: Huh-7 cells, genotype 1b HCV replicon; experiment: Inhibition of HCV replication in cell culture, genotype 1b replicon; type: cell-based, hepatitis C virus; settings: for pEC50 / EC50: Huh-7, genotype 1b replicon, intracellular HCV RNA 24 h after 3 daily doses; for pEC50: read-out: EC50; for Selectivity Index (CC50/EC50): genotype 1b replicon, CC50 by neutral red uptake
Experimental: as §1, §2

HCV RdRp (NS5B) = HCV RdRp (NS5B) (UniProt P26663); type: biochemical, hepatitis C virus
Chain of HCV RdRp (NS5B) (P26663 whole entry, looked up): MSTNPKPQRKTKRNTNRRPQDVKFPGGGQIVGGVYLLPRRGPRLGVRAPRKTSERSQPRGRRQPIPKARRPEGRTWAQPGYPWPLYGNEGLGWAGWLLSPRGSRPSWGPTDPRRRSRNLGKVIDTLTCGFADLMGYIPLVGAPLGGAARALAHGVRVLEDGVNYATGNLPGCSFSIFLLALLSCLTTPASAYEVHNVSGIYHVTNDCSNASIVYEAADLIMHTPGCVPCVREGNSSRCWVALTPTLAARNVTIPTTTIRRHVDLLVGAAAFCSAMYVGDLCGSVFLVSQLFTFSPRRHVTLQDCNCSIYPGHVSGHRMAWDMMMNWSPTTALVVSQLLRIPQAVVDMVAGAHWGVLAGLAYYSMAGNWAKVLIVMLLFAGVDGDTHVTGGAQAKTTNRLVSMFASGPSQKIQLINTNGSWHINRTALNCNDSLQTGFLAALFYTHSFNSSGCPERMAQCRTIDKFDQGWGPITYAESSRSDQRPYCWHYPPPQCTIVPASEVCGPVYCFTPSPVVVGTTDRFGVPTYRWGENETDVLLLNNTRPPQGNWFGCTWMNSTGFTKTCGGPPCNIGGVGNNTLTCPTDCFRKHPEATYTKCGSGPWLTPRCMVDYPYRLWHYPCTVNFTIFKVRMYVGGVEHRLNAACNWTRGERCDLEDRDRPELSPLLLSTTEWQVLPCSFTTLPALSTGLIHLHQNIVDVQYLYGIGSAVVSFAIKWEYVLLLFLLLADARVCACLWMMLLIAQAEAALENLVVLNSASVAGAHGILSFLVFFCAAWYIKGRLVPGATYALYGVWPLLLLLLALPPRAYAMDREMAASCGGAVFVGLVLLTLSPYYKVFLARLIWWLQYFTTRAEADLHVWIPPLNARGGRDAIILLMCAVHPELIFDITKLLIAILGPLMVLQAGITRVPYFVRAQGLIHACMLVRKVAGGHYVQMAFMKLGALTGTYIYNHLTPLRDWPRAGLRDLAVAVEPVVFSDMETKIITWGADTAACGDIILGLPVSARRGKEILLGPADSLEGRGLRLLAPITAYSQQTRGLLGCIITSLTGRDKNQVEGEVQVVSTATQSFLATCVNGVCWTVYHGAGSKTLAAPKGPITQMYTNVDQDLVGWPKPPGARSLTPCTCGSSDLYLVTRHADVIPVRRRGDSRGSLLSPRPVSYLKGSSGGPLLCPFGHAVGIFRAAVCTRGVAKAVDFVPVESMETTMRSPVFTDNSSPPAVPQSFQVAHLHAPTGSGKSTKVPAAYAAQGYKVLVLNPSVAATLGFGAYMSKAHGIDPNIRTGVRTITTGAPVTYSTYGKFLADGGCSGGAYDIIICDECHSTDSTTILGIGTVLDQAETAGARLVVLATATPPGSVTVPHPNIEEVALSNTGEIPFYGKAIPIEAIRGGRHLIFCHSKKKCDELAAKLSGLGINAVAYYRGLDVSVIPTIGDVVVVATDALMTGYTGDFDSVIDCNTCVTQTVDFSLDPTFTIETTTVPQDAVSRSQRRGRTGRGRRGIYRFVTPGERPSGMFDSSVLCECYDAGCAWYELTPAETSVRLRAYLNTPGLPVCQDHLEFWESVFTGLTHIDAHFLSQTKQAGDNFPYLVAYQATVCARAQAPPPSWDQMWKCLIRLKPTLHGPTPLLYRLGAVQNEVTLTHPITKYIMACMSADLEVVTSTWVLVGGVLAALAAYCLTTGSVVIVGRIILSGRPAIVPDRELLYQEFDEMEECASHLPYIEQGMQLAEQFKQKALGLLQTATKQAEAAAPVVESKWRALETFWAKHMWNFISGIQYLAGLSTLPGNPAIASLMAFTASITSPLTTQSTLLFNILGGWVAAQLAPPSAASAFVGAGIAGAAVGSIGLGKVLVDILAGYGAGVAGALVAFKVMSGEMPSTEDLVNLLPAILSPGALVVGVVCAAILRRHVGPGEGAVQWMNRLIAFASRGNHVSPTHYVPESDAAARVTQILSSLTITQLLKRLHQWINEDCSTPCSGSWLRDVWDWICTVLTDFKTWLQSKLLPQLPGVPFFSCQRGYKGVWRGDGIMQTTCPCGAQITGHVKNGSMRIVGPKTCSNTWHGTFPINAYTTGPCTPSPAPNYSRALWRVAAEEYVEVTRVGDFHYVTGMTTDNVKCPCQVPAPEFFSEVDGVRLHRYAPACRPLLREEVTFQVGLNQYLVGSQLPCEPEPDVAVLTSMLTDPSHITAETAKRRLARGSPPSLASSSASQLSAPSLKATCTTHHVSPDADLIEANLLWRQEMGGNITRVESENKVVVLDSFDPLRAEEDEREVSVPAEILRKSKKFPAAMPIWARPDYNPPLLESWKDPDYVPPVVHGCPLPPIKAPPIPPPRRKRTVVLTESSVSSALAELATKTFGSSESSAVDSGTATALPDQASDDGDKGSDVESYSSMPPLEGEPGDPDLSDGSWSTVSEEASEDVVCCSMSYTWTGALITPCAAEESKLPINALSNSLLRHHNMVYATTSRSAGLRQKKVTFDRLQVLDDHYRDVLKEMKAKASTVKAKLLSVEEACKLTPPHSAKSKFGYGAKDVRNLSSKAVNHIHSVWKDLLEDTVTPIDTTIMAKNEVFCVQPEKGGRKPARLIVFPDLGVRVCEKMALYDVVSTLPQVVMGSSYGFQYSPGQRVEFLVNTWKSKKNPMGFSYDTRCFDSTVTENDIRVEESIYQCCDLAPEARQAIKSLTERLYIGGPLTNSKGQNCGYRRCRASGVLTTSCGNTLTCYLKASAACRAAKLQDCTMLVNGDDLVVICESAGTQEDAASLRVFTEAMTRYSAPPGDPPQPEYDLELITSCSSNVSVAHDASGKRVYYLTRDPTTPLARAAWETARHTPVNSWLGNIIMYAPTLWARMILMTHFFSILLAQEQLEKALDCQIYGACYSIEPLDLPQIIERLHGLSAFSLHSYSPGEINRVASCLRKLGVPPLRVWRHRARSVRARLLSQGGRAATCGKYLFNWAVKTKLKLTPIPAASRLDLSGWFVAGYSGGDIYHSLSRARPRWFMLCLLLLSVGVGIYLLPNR

HCV RdRp = biological target: T1, HCV RdRp (Hepatitis C virus genotype 1b, UniProt P26663); settings: literature value; read-out: Published IC50; cited from earlier work
T1 construct: The HCV encoded RNA-dependent RNA polymerase (HCV RdRp), also known as non-structural protein 5B (NS 5B)
T1 sequence (P26663 2420-3010): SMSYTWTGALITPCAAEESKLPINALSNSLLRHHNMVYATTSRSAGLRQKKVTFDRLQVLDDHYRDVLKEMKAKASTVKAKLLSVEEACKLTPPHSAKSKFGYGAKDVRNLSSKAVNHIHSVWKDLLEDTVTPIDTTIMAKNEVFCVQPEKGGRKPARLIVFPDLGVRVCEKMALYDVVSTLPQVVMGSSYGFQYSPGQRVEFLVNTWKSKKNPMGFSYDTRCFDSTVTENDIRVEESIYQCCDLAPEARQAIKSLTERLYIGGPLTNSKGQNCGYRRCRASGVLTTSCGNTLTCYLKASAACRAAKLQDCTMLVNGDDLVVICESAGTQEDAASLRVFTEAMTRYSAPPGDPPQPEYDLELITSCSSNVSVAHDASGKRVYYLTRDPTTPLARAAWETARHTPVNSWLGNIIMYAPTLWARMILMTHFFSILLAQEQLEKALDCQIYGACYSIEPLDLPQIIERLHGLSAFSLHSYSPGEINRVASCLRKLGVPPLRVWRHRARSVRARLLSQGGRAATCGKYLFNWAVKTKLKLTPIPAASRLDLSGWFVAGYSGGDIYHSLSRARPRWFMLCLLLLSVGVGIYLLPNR

[3] = biological target: T2, NS5B (Replizyme, UK), HCV genotype 1b Δ21 RdRp (UniProt P26663); type: biochemical, hepatitis C virus
T2 construct: other: Replizyme enzyme
Experimental: (§3) An RNA-dependant RNA polymerase assay was performed in a 96-well round bottom polypropylene plates (Costar) with a 50 μl reaction volume containing 20 mM HEPES pH 7.2-7.5 (Gibco), 1 mM DTT (Sigma), 0.4 mM MnCl2 (Sigma), 70 nM RNA template-primer PolyA (Amersham)-Oligo dT(20) biotin labelled (Roche), 20 μM UTP (Roche), 5U RNasin (Promega), 50 mM NaCl (Ambion), 4 μM DIG-11-UTP (Roche), test compound at desired concentration, 5% DMSO and 50-80 ng NS5B (Replizyme(V, UK) or 200-500 ng of recombinant NS5BA21 HCV RdRp enzyme. After 1 hour incubation at 30° C, the reaction is stopped by the addition of 5 μl 0.5 M EDTA and the solution is transferred to a streptavidin coated 96 well plate (Roche). Standard ELISA detection using Anti DIG-POD antibody (Roche) and BM Blue substrate is applied before measuring Abs at 450 nm. An illustration of the assay can be found in FIG. 1.

[4] = biological target: recombinant NS5BΔ21 HCV RdRp enzyme (genotype 1b, produced in-house) (UniProt P26663); experiment: RdRp assay with ELISA, recombinant in-house enzyme; type: biochemical, hepatitis C virus; settings: read-out: Experimental IC50, Recombinant
Experimental: as §3

[5] = tested on: NS5B (Replizyme, UK), HCV genotype 1b Δ21 RdRp; type: biochemical, hepatitis C virus
Experimental: as §3

[6] = read-out: Experimental IC50, Replizyme; Replizyme enzyme

Structure (SMILES)	pEC50 ([2]; Hepatitis C virus, Huh-7, 24 h)	Selectivity Index (CC50/EC50) [2]	pIC50 (HCV RdRp (NS5B))	other results
Cc1ccc(NC(=O)[C@H](CCCCN)NC(=O)Nc2ccc(OCc3ccccc3)cc2)cc1 [Compound 2, (S)-6-AMINO-2-[3-(4-BENZYLOXY-PHENYL)-UREIDO]-HEXANOIC ACID P-TOLYLAMIDE]	> 6.30	>100	4.30 to 5.00	pEC50 ([1]; Hepatitis C virus): > 6.30; Selectivity Index (CC50/EC50) [1]: 20 to 100
CCCCn1c(=O)c(C2=NS(=O)(=O)c3ccccc3N2)c(O)c2ccccc21	–	–	–	pIC50 (HCV RdRp): 6.62; pIC50 [3, 6]: 6.00; pIC50 [4]: 5.74
O=C(O)c1ccc2c(c1)nc(-c1ccccn1)n2C1CCCCC1	–	–	–	pIC50 (HCV RdRp): 5.36; pIC50 [3, 6]: 4.16; times less inhibition with the Replizyme enzyme than with the prepared enzyme [5]: about 20; pIC50 [4]: 5.46
Cc1ccc(NC(=O)[C@H](CCCCN)NCc2ccc(NC(=O)Nc3ccncc3)cc2)cc1 [Compound 262, (S)-6-AMINO-2-[4-(3-PYRIDIN-4-YL-UREIDO)-BENZYLAMINO]-HEXANOIC ACID P-TOLYLAMIDE]	–	–	> 5.00	pEC50 [1]: > 6.30; EC50 [2]: 2 to 0.5 μM
O=c1ccn([C@@H]2O[C@H](COP(=O)(O)OP(=O)(O)OP(=O)(O)O)C[C@H]2O)c(=O)[nH]1 [3′-dUTP]	–	–	–	pIC50 ([3]; Replizyme enzyme; read-out: Experimental IC50, Replizyme): 6.89
CC(C)Cn1c(=O)c(C2=Nc3ccccc3S(=O)(=O)N2)c(O)c2ccccc21	–	–	–	pIC50 (HCV RdRp): 6.47; pIC50 [3, 6]: 5.64; pIC50 [4]: 5.55
COC(=O)c1ccc(COc2ccc(NC(=O)NC(CCCCN)C(=O)Nc3ccc(C)cc3)cc2)cc1 [Compound 199, (S)-4-{4-13-(5-AMINO-1-P-TOLYLCARBAMOYL-PENTYL)-UREIDO]-PHENOXYMETHYL}-BENZOIC ACID METHYL ESTER]	5.70 to 6.30	20 to 100	4.30 to 5.00	–
Cc1cc2cc(NC(=O)[C@H](CCCCN)NC(=O)Nc3ccc(-c4ccccc4)cc3)ccc2[nH]1 [Compound 94, (S)-6-AMINO-2-(3-BIPHENYL-4-YL-UREIDO)-HEXANOIC ACID (2-METHYL-1H-INDOL-5-YL)-AMIDE]	< 5.70	<20	> 5.00	–
Cc1ccc(NC(=O)[C@H](CCCCN)NC(=O)CNc2ccc(Oc3ccccc3)cc2)cc1 [Compound 368, (S)-6-AMINO-2-[2-(4-PHENOXY-PHENYLAMINO)-ACETYLAMINO]-HEXANOIC ACID P-TOLYLAMIDE]	5.70 to 6.30	<20	> 5.00	–
Cc1ccc(NC(=O)C(Cc2ccc(CN)cc2)NC(=O)Nc2ccc(-c3ccccc3)cc2)cc1 [Compound 145, (S)-3-(4-AMINOMETHYL-PHENYL)-2-(3-BIPHENYL-4-YL-UREIDO)-N-P-TOLYL-PROPIONAMIDE]	< 5.70	<20	> 5.00	–
Cc1ccc(NC(=O)[C@@H](CCCCN)NC(=O)Nc2ccc(OCc3ccccc3)cc2)cc1 [Compound 172, (R)-6-AMINO-2-[3-(4-BENZYLOXY-PHENYL)-UREIDO]-HEXANOIC ACID P-TOLYLAMIDE]	5.70 to 6.30	<20	4.30 to 5.00	pEC50 ([1]; Hepatitis C virus): > 6.30; Selectivity Index (CC50/EC50) [1]: 20 to 100
Cc1ccc(NC(=O)C(CCCCN)NC(=O)Nc2ccc(-c3nc4ccccc4o3)cc2)cc1 [Compound 270, (S)-6-AMINO-2-[3-(4-BENZOOXAZOL-2-YL-PHENYL)-UREIDO]-HEXANOIC ACID P-TOLYLAMIDE]	< 5.70	<20	4.30 to 5.00	–
Cc1ccc(NC(=O)[C@H](CCCCN)NC(=O)Nc2ccc3c(c2)Cc2ccccc2-3)cc1 [Compound 125, (S)-6-AMINO-2-[3-(9H-FLUOREN-2-YL)-UREIDO]-HEXANOIC ACID P-TOLYLAMIDE]	–	<20	> 5.00	pEC50 [2]: < 5.70
Cc1ccc(NC(=O)C(CCCCN)NC(=O)Nc2cccc(-c3ccccc3)c2)cc1 [Compound 127, (S)-6-AMINO-2-(3-BIPHENYL-3-YL-UREIDO)-HEXANOIC ACID P-TOLYLAMIDE]	< 5.70	<20	4.30 to 5.00	–
CC1CCC(NC(=O)[C@H](CNC(=O)CN)NC(=O)Nc2ccc(OCc3ccccc3)cc2)CC1 (stereo partly drawn) [Compound 306, (S)-3-(2-AMINO-ACETYLAMINO)-2-[3-(4-BENZYLOXY-PHENYL)-UREIDO]-N-(4-METHYL-CYCLOHEXYL)-PROPIONAMIDE]	< 5.70	<20	4.30 to 5.00	–
Cc1ccc(NC(=O)[C@@H](CCCCN)NC(=O)Nc2ccc3c(c2)Cc2ccccc2-3)cc1 [Compound 173, (R)-6-AMINO-2-[3-(9H-FLUOREN-2-YL)-UREIDO]-HEXANOIC ACID P-TOLYLAMIDE]	–	<20	> 5.00	EC50 [2]: 2 to 0.5 μM
NCCCCC[C@H](NC(=O)NCc1ccccc1)C(=O)Nc1ccc(C2CCCCC2)cc1 [Compound 120, (S)-7-AMINO-2-(3-BENZYL-UREIDO)-HEPTANOIC ACID (4-CYCLOHEXYL-PHENYL)-AMIDE]	< 5.70	<20	> 5.00	–
O=C(O)COc1ccc2[nH]cc(C[C@H](NC(=O)c3ccc4c(c3)nc(-c3ccoc3)n4C3CCCCC3)C(=O)O)c2c1	–	–	–	pIC50 (HCV RdRp): 5.94; pIC50 [3, 6]: 5.89; times less inhibition with the Replizyme enzyme than with the prepared enzyme [5]: about 20; pIC50 [4]: 7.22
Cc1cc2cc(NC(=O)[C@H](CCCNC(=O)CN)NC(=O)Nc3ccc4c(c3)Cc3ccccc3-4)ccc2[nH]1 [Compound 297, (S)-5-(2-AMINO-ACETYLAMINO)-2-[3-(9H-FLUOREN-2-YL)-UREIDO]-PENTANOIC ACID (2-METHYL-1H-INDOL-5-YL)-AMIDE]	> 6.30	>100	> 5.00	pEC50 ([1]; Hepatitis C virus): > 6.30; Selectivity Index (CC50/EC50) [1]: >100
Cc1ccc(NC(=O)C(CCCCN)NC(=O)Nc2ccc(-c3nc4ccc(C)cc4s3)cc2)cc1 [Compound 214, (S)-6-AMINO-2-{3-[4-(6-METHYL-BENZOTHIAZOL-2-YL)-PHENYL]-UREIDO}-HEXANOIC ACID P-TOLYLAMIDE]	< 5.70	<20	> 5.00	–
Cc1cc2cc(NC(=O)[C@H](CCCCN)NC(=O)Nc3ccc(OCc4ccccc4)cc3)ccc2[nH]1 [Compound 206, (S)-6-AMINO-2-[3-(4-BENZYLOXY-PHENYL)-UREIDO]-HEXANOIC ACID (2-METHYL-1H-INDOL-5-YL)-AMIDE]	< 5.70	<20	4.30 to 5.00	pEC50 ([1]; Hepatitis C virus): < 5.70; Selectivity Index (CC50/EC50) [1]: <20
Cc1cc2cc(NC(=O)[C@H](CCNC(=O)CN)NC(=O)Nc3ccc4c(c3)Cc3ccccc3-4)ccc2[nH]1 [Compound 240, (S)-4-(2-AMINO-ACETYLAMINO)-2-[3-(9H-FLUOREN-2-YL)-UREIDO]-N-(2-METHYL-1H-INDOL-5-YL)-BUTYRAMIDE]	< 5.70	<20	4.30 to 5.00	–
